Results reported in patent US20250270159A1, “1-(CYCLOBUTANEMETHYLIDENE)-2, 4, 5-TRIMETHOXYBENZENE COMPOUND AND PREPARATION METHOD AND USE THEREOF” (CHENGDU XINRUI TAIKANG TECHNOLOGY CO., LTD., priority 2023, published 2025).

What was measured:
[1] = system: ischemic stroke induced by the filament technique in rats; experiment: Long-term ischemic stroke (MCAO), bonding (adhesive tape) test; format: in vivo; conditions: for Time for rats to perceive tape, Day 1 / Time for rats to perceive tape, Day 4 / Time for rats to perceive tape, Day 7 / Time for rats to perceive tape, Day 10 / Time for rats to perceive tape, Day 14 / Time of removing tape, Day 1 / Time of removing tape, Day 4 / Time of removing tape, Day 7 / Time of removing tape, Day 10 / Time of removing tape, Day 14: cut-off 60 s
Protocol: The rats were randomly divided into a sham operation group (Sham group, given a blank emulsion with a volume equal to that of the high-dose CTMB group), a model group (Vehicle group, given a blank emulsion with a volume equal to that of the high-dose CTMB group), a low-dose CTMB group (CTMB-L group, 10 mg/kg), a high-dose CTMB group (CTMB-H group, 20 mg/kg), and an edaravone dexborneol injection concentrated solution group (EDB group, commercially available, 3 mg/kg). 10 rats were included in each group, which were administered by intraperitoneal injection. It should be noted that in the experiment, the mode of administration for rats was intraperitoneal injection, and a ratio of the effective dose of CTMB, the active ingredient in the emulsion injection, to the unit mass of the human body was within a range of 0.2 mg-4.0 mg/kg, which referred to the ratio of the effective dose of CTMB, the active ingredient in the emulsion injection, to the unit mass of the human body during intravenous infusion, which was extrapolated from the effective dose of the rats. Considering the different bioavailability, peak concentration, and peak time of the drug due to different species and different modes of administration, the effective dose of the active ingredient CTMB in the emulsion injection to the unit mass of human body was finally determined to be 0.2 mg-4.0 mg/kg through conversion.
The rats were fasted for 12 h before procedure, and the rats were anesthetized with 10% chloral hydrate (350 mg/kg, i.p.). The rats were fixed in the supine position, and the body temperature was maintained at about 37° C. For neck preparation, a median neck incision was made, the muscle and fascia were separated along the inner edge of the sternocleidomastoid muscle to expose the right side, the common carotid artery (CCA), external carotid artery (ECA), and internal carotid artery (ICA) were separated bluntly, and the lines were disposed of proximally in the CCA proximal end, ICA, and ECA for backup. The CCA proximal end and ECA were ligatured, and an arterial clip was used to temporarily close the ICA, then a small hole was poked at a position of CCA having about 4 mm from the bifurcation with a needle. The filament was inserted into the ICA through the CCA, the arterial clipped on ICA was loosened, and the filament was slowly advanced. When the mark on the filament reached the bifurcation and a slight resistance was felt, the thin wire at ICA was tightened, and saline was used to clean the wound and then suture was performed. The sham procedure was the same as the experimental group except that no filament was inserted. After anesthesia, the rats were raised normally.
Rats were trained in adhesion experiments for one week before modeling, and those that could successfully tear off the tape within 10 s were screened for modeling. After 2 h of modeling by the filament technique, the rats were immediately administered with the drug according to the grouped administration plan. Thereafter, the rats were continued to be administered with the drug once a day for 14 days, and adhesion experiments were performed on days 1, 4, 7, 10, and 14 to assess sensory and motor nerve function. The specific operation was as follows. A circular tape with a diameter of about 12 mm was adhered to the plantar surface of the left forelimb of the rat, and the sensation and removal time of the tape was recorded. If the mice were unable to perceive and/or remove the tape within 60 s, 60 s were recorded.

[2] = system: Parkinson's disease (PD) mice, 6-OHDA method; experiment: 6-OHDA Parkinson's disease mice, rod-climbing experiment; format: in vivo, C57 mice; conditions: Group D, CTMB 20 mg/kg ip
Protocol: (§1) The mice were randomly divided into a sham operation group (group S, given a blank emulsion with a volume equal to that of the administered group), a model group (group M, given a blank emulsion with a volume equal to that of the administered group), a CTMB group (20 mg/kg, group D), and a levodopa group (levodopa: benserazide hydrochloride=4:1, 12 mg/kg, group L), each group included 10-12 mice, and all of them were administered intraperitoneally.
Preoperatively, mice were fasted for 12 h, and mice were anesthetized with 4% isoflurane induction and maintained with 1.5% isoflurane. The mice were subsequently immobilized on a brain stereotaxic apparatus. The bregma and lambda points were exposed by gently wiping the cranial surface with a cotton swab after cutting the scalp. The stereotaxic apparatus was adjusted to align the heights of the bregma and lambda points, thereby leveling the skull. The bregma point was designated as the origin, the coordinates where the injection site was located were located, and the drill was used to drill a small hole in the skull above the injection site.
6-OHDA (12.5 μg/μL) was injected into the striatum region (AP+0.5 mm; ML+2.00 mm; DV-3.00 mm and-2.00 mm) of the mice, and 1 μL 6-OHDA was injected into each of the two points at a rate of 0.5 μL/min. The needle was left in place for 3 min after the injection was completed, and then the injection needle was lifted, and the scalp of the mice was sutured and disinfected. The sham operation group was injected with an equal volume of saline containing 0.02% ascorbic acid, and other operations were performed as above. After the procedure, the mice were placed in the cage at an appropriate temperature. After awakening from anesthesia, the mice were kept normally.
The rod-climbing experiment: the rod-climbing experiment was mainly used to test the limb movement ability of mice and to assess the symptoms of motor delay. This experiment evaluated the ability of mice to grasp and maneuver on a pole to descend to their home cage. A cork ball was fixed to an iron pole with a diameter of 1 cm and a length of 65 cm. The head of the mice was put down on the top of the pole, and the mice usually naturally descended down along the pole to return to their cage. The time for the mice to descend to the bottom was recorded. Results were averaged over 3 consecutive measurements.
The motor function of the mice was comprehensively assessed using the rod-climbing experiment and the hanging experiment at 1, 2, 3, and 4 weeks after drug administration.

[3] = system: neurons in the substantia nigra region of the midbrain of PD mice; experiment: Niehl's staining, number of neuronal Niehl's bodies in substantia nigra of PD mice; format: in vivo, C57 mice; conditions: Group D, CTMB 20 mg/kg ip, after 4 weeks of administration
Protocol: as §1
After completing the evaluation of motor function after 4 weeks of drug administration, the mice were deeply anesthetized, perfused with 20 mL of saline and 20 mL of 4% paraformaldehyde via the heart, and the brains were rapidly severed and extracted from the head, which were then preserved and fixed in 4% paraformaldehyde for 72 h after removal, and then embedded with paraffin to prepare the slices with a thickness of 4 μm for subsequent pathological and histological studies.
Niehl's staining was used to identify Niehl's bodies in neuronal cells.

SMILES: COc1cc(OC)c(OC)cc1C=C1CCC1 [CTMB, 1-(cyclobutylidenemethyl)-2,4,5-trimethoxybenzene]
- toxic side effects associated with administration ([1]; 10 and 20 mg/kg ip once a day for 14 days, bonding test): No toxic side effects
- Time for rats to perceive tape, Day 1 ([1]; CTMB-H 20 mg/kg ip once a day): 31.17 ± 24.57^#^ s
- Time for rats to perceive tape, Day 4 ([1]; CTMB-H 20 mg/kg ip once a day): 25.33 ± 23.41^#^ s
- Time for rats to perceive tape, Day 7 ([1]; CTMB-H 20 mg/kg ip once a day): 20.50 ± 22.99^#^ s
- Time for rats to perceive tape, Day 10 ([1]; CTMB-H 20 mg/kg ip once a day): 7.00 ± 4.56 s
- Time for rats to perceive tape, Day 14 ([1]; CTMB-H 20 mg/kg ip once a day): 8.44 ± 11.94 s
- Time of removing tape, Day 1 ([1]; CTMB-H 20 mg/kg ip once a day): 53.67 ± 16.66 s
- Time of removing tape, Day 4 ([1]; CTMB-H 20 mg/kg ip once a day): 51.33 ± 17.14 s
- Time of removing tape, Day 7 ([1]; CTMB-H 20 mg/kg ip once a day): 48.67 ± 16.55 s
- Time of removing tape, Day 10 ([1]; CTMB-H 20 mg/kg ip once a day): 31.11 ± 19.76 s
- Time of removing tape, Day 14 ([1]; CTMB-H 20 mg/kg ip once a day): 33.22 ± 23.03 s
- Time for rats to perceive tape, Day 1 ([1]; CTMB-L 10 mg/kg ip once a day): 42.25 ± 25.53 s
- Time for rats to perceive tape, Day 4 ([1]; CTMB-L 10 mg/kg ip once a day): 27.50 ± 28.05 s
- Time for rats to perceive tape, Day 7 ([1]; CTMB-L 10 mg/kg ip once a day): 28.20 ± 28.97^#^ s
- Time for rats to perceive tape, Day 10 ([1]; CTMB-L 10 mg/kg ip once a day): 27.11 ± 30.06 s
- Time for rats to perceive tape, Day 14 ([1]; CTMB-L 10 mg/kg ip once a day): 10.44 ± 12.44 s
- Time of removing tape, Day 1 ([1]; CTMB-L 10 mg/kg ip once a day): 50.75 ± 17.65 s
- Time of removing tape, Day 4 ([1]; CTMB-L 10 mg/kg ip once a day): 36.20 ± 24.17 s
- Time of removing tape, Day 7 ([1]; CTMB-L 10 mg/kg ip once a day): 38.60 ± 26.15^#, * s
- Time of removing tape, Day 10 ([1]; CTMB-L 10 mg/kg ip once a day): 26.63 ± 27.80 s
- Time of removing tape, Day 14 ([1]; CTMB-L 10 mg/kg ip once a day): 26.22 ± 21.48 s
- Rod-climbing time, 1 week of administration [2]: 6.38 ± 1.22 s
- Rod-climbing time, 2 weeks of administration [2]: 6.41 ± 1.12 s
- Rod-climbing time, 3 weeks of administration [2]: 5.50 ± 1.02^#, * s
- Rod-climbing time, 4 weeks of administration [2]: 5.28 ± 0.92^#, * s
- Rod-climbing time, Before administration ([2]; baseline 2 weeks after 6-OHDA): 9.29 ± 1.92 s
- Number of Niehl's bodies [3]: 55.5 ± 4.0
